Reference: patent EP4722231A1, “BIOSYNTHESIS METHOD FOR BROAD-SPECTRUM ANTIVIRAL POLYPEPTIDE” (Shanxi Jinbo Bio-Pharmaceutical Co., Ltd., priority 2023, dated 2025)

System: SARS-CoV-2 (D614G) pseudovirus
Conditions: 24 h

CC[C@H](C)[C@H](NC(=O)[C@H](C)NC(=O)[C@H](CCC(=O)O)NC(=O)[C@H](CCC(=O)O)NC(=O)[C@H](CC(C)C)NC(=O)[C@H](CCCCN)NC(=O)[C@H](CCCCN)NC(=O)[C@H](CCSC)NC(=O)[C@H](CCC(=O)O)NC(=O)[C@H](Cc1ccc(O)cc1)NC(=O)[C@H](CCC(=O)O)NC(=O)[C@H](CC(C)C)NC(=O)[C@H](CC(=O)O)NC(=O)[C@H](CC(C)C)NC(=O)[C@H](Cc1ccccc1)NC(=O)[C@@H](NC(=O)[C@@H](NC(=O)[C@H](CC(N)=O)NC(=O)[C@@H](NC(=O)[C@H](CCC(N)=O)NC(=O)[C@H](CC(=O)O)NC(=O)[C@H](CC(C)C)NC(=O)[C@H](CO)NC(C)=O)[C@@H](C)CC)C(C)C)[C@@H](C)O)C(=O)N[C@@H](CCCCN)C(=O)N[C@@H](CCCCN)C(=O)N[C@@H](CC(C)C)C(=O)N[C@@H](CCC(=O)O)C(=O)N[C@@H](CCC(=O)O)C(=O)N[C@@H](CO)C(=O)N[C@@H](Cc1ccc(O)cc1)C(=O)N[C@H](C(=O)N[C@@H](CC(=O)O)C(=O)N[C@@H](CC(C)C)C(=O)N[C@@H](CCCCN)C(=O)N[C@@H](CCC(=O)O)C(=O)N[C@@H](CC(C)C)C(N)=O)[C@@H](C)CC [EK1]
IC50: 308 nM
